In brackets after ≈: the same amount, converted by molar mass. Where two headings read alike, the source gives them in different places.
How the values were obtained:
[1] = Activated sludge simulating microcosms (degradation of FL, formation of NFL); format: physicochemical
Description: Activated sludge microcosm experiments were conducted in the dark and aerobic conditions. Three microcosm bioreactors were investigated in duplicate. They were filled with 2 L of fresh activated sludge collected from a local wastewater treatment plant. […] Dark conditions were simulated by covering up the flask with foil. Aerobic conditions were obtained using air from BOC air cylinder and a thorough mixing was maintained using magnetic stirrers. The experiment was 24 hours long. […] Collected samples were subsequently frozen until their analysis to prevent degradation of compounds.
The compounds studied are characterized as having low volatility and therefore volatilization was not considered as a potential removal pathway in studied microcosms. Photodegradation was also not considered (not relevant) under tested activated sludge conditions. Therefore the two important degradation mechanisms to consider were biodegradation and sorption to sludge. […] However, in this study, sorption equilibrium was assumed and therefore sorption could be considered negligible. This is because sorption is assumed to be fast when compared to biological degradation.
Several reports utilized pseudo-first-order kinetics for degradation of micropollutants in activated sludge reactors[48]–[50]. […] Pseudo-first order biodegradation rate k1 [L g^−1h^−1]

[2] = River water simulating microcosms (degradation of FL)
[3] = ref [3], cited from earlier work; for excreted in the urine as this species: after FL
Daphnia magna = Daphnia magna acute 48 h immobilization assay (Daphtoxkit); format: in vivo; conditions: for Average effect (N immobile, 5 daphnids per replicate): 48 h;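 for Average effect (N immobile, 5 daphnids per replicate): test concentrations in mg per L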
Description: Six concentration levels (5 concentrations plus control, four replicate beakers for each concentrations, five individual for each beaker) were tested. […] Each experiment was repeated in triplicate.

Tetrahymena thermophila = assay: microbe, parasite or virus in culture; format: cell-based
Description: The tests were performed in accordance with the protocols provided by the manufacturer. […] The tests were carried out in disposable spectrophotometric cells of 1 cm path-length, to enable the measurement of the optical density (OD) at 440 nm. […] This change in OD over the time period is used to quantify the degree of inhibition and subsequent calculation of the EC50. Each concentration was repeated in duplicate.

[4] = 10 µg L^−1 microcosm, first 30 minutes

Q: Which EF ([1]; 10 µg L-1 microcosm, time 0) does the source give for `CNCCC(Oc1ccc(C(F)(F)F)cc1)c1ccccc1` (centres unmarked) [FL, Fluoxetine, reference compound] here?
A: 0.484

Q: And the EF ([1]; 10 µg L-1 microcosm, time 0.5)?
A: 0.504

Q: What about the EF ([1]; 10 µg L-1 microcosm, time 1) of the same compound?
A: 0.347

Q: What about the EF ([1]; 10 µg L-1 microcosm, time 1.5) of the same compound?
A: 0.499

Q: What about the EF ([1]; 10 µg L-1 microcosm, time 2) of the same compound?
A: 0.480

Q: And the EF ([1]; 10 µg L-1 microcosm, time 3)?
A: 0.499

Q: And the EF ([1]; 10 µg L-1 microcosm, time 5)?
A: 0.429

Q: What about the EF ([1]; 10 µg L-1 microcosm, time 8) of the same compound?
A: 0.461

Q: What about the EF ([1]; 10 µg L-1 microcosm, time 12) of the same compound?
A: 0.263

Q: What about the EF ([1]; 10 µg L-1 microcosm, time 24) of the same compound?
A: 0.260

Q: And the lag phase ([1]; 10 µg L^−1 FL bioreactor)?
A: 3 h

Q: And the “degradation (rapid removal from aqueous phase)” value [1, 4]?
A: 50%

Q: And the “enantiomeric fraction (EF)” value [1, 4]?
A: 0.5

Q: And the “enantiomeric fraction (EF)” value ([1]; 10 µg L^−1 reactor, after further slow removal)?
A: < 0.3

Q: And the EF ([1]; 100 µg L-1 microcosm, time 0)?
A: 0.531

Q: What about the EF ([1]; 100 µg L-1 microcosm, time 0.5) of the same compound?
A: 0.519

Q: What about the EF ([1]; 100 µg L-1 microcosm, time 1) of the same compound?
A: 0.515

Q: What about the EF ([1]; 100 µg L-1 microcosm, time 1.5) of the same compound?
A: 0.516

Q: And the EF ([1]; 100 µg L-1 microcosm, time 2)?
A: 0.511

Q: And the EF ([1]; 100 µg L-1 microcosm, time 3)?
A: 0.477

Q: And the EF ([1]; 100 µg L-1 microcosm, time 5)?
A: 0.431

Q: What about the EF ([1]; 100 µg L-1 microcosm, time 8) of the same compound?
A: 0.410

Q: What about the EF ([1]; 100 µg L-1 microcosm, time 12) of the same compound?
A: 0.326

Q: What about the EF ([1]; 100 µg L-1 microcosm, time 24) of the same compound?
A: 0.257

Q: What about the lag phase ([1]; 100 µg L^−1 FL bioreactor) of the same compound?
A: 2 h

Q: What about the “enantiomeric fraction (EF)” value ([1]; 100 µg L^−1 microcosm) of the same compound?
A: < 0.3

Q: And the transformation / removal ([1]; 100 µg L^−1 microcosm, 24 h)?
A: 60%

Q: And the EF ([2]; DAR (dark abiotic), day 1)?
A: 0.499

Q: What about the EF ([2]; DAR (dark abiotic), day 2) of the same compound?
A: 0.502

Q: What about the EF ([2]; DAR (dark abiotic), day 3) of the same compound?
A: 0.504

Q: And the EF ([2]; DAR (dark abiotic), day 4)?
A: 0.507

Q: What about the EF ([2]; DAR (dark abiotic), day 9) of the same compound?
A: 0.497

Q: And the EF ([2]; DAR (dark abiotic), day 10)?
A: 0.505

Q: And the EF ([2]; DAR (dark abiotic), day 11)?
A: 0.526

Q: What about the EF ([2]; DAR (dark abiotic), day 15) of the same compound?
A: 0.497

Q: What about the EF ([2]; DBR (dark biotic), day 1) of the same compound?
A: 0.506

Q: What about the EF ([2]; DBR (dark biotic), day 2) of the same compound?
A: 0.468

Q: And the EF ([2]; DBR (dark biotic), day 3)?
A: 0.496

Q: And the EF ([2]; DBR (dark biotic), day 4)?
A: 0.503

Q: And the EF ([2]; DBR (dark biotic), day 5)?
A: 0.495

Q: And the EF ([2]; DBR (dark biotic), day 8)?
A: 0.441

Q: And the EF ([2]; DBR (dark biotic), day 9)?
A: 0.499

Q: And the EF ([2]; DBR (dark biotic), day 10)?
A: 0.507

Q: And the EF ([2]; DBR (dark biotic), day 11)?
A: 0.495

Q: What about the EF ([2]; DBR (dark biotic), day 12) of the same compound?
A: 0.490

Q: And the EF ([2]; DBR (dark biotic), day 15)?
A: 0.538

Q: And the EF ([2]; DBR (dark biotic), day 16)?
A: 0.554

Q: What about the EF ([2]; LAR (light abiotic), day 1) of the same compound?
A: 0.497

Q: What about the EF ([2]; LAR (light abiotic), day 2) of the same compound?
A: 0.488

Q: What about the EF ([2]; LAR (light abiotic), day 3) of the same compound?
A: 0.491

Q: What about the EF ([2]; LAR (light abiotic), day 4) of the same compound?
A: 0.498

Q: And the EF ([2]; LAR (light abiotic), day 5)?
A: 0.511

Q: And the EF ([2]; LAR (light abiotic), day 8)?
A: 0.508

Q: And the EF ([2]; LAR (light abiotic), day 9)?
A: 0.513

Q: And the EF ([2]; LAR (light abiotic), day 10)?
A: 0.511

Q: And the EF ([2]; LAR (light abiotic), day 11)?
A: 0.512

Q: And the EF ([2]; LAR (light abiotic), day 12)?
A: 0.487

Q: What about the EF ([2]; LAR (light abiotic), day 15) of the same compound?
A: 0.531

Q: And the EF ([2]; LAR (light abiotic), day 16)?
A: 0.535

Q: And the EF ([2]; LBR (light biotic), day 1)?
A: 0.493

Q: And the EF ([2]; LBR (light biotic), day 2)?
A: 0.493

Q: And the EF ([2]; LBR (light biotic), day 3)?
A: 0.498

Q: What about the EF ([2]; LBR (light biotic), day 4) of the same compound?
A: 0.502

Q: What about the EF ([2]; LBR (light biotic), day 5) of the same compound?
A: 0.508

Q: What about the EF ([2]; LBR (light biotic), day 8) of the same compound?
A: 0.537

Q: And the EF ([2]; LBR (light biotic), day 9)?
A: 0.512

Q: What about the EF ([2]; LBR (light biotic), day 10) of the same compound?
A: 0.497

Q: What about the EF ([2]; LBR (light biotic), day 11) of the same compound?
A: 0.498

Q: And the EF ([2]; LBR (light biotic), day 12)?
A: 0.491

Q: And the EF ([2]; LBR (light biotic), day 15)?
A: 0.525

Q: And the EF ([2]; LBR (light biotic), day 16)?
A: 0.467

Q: What about the “removal of FL” value ([2]; river water, dark abiotic conditions (DAR)) of the same compound?
A: did not lead to any significant removal

Q: What about the “excreted in the urine as this species” value [3] of the same compound?
A: 11.6%

Q: And the “excreted in the feces” value [3]?
A: approximately 15%

Q: And the “excreted in the urine” value [3]?
A: 80%

Q: Which results are given for `NCC[C@H](Oc1ccc(C(F)(F)F)cc1)c1ccccc1` [(S)-NFL]?
A: Concentration ([1]; 10 µg L-1 microcosm, time 0): 0.127 ± 0.015 ng/mL; Concentration ([1]; 10 µg L-1 microcosm, time 0.5): 0.057 ± 0.006 ng/mL; Concentration ([1]; 10 µg L-1 microcosm, time 1.5): 0.010 ± 0.000 ng/mL; Concentration ([1]; 10 µg L-1 microcosm, time 2): 0.151 ± 0.068 ng/mL; Concentration ([1]; 10 µg L-1 microcosm, time 3): 0.222 ± 0.038 ng/mL; Concentration ([1]; 10 µg L-1 microcosm, time 5): 0.384 ± 0.053 ng/mL; Concentration ([1]; 10 µg L-1 microcosm, time 8): 0.315 ± 0.016 ng/mL; Concentration ([1]; 10 µg L-1 microcosm, time 12): 0.562 ± 0.219 ng/mL; Concentration ([1]; 10 µg L-1 microcosm, time 24): 0.510 ± 0.059 ng/mL; Concentration ([1]; 100 µg L-1 microcosm, time 0): 0.553 ± 0.146 ng/mL; Concentration ([1]; 100 µg L-1 microcosm, time 0.5): 0.538 ± 0.149 ng/mL; Concentration ([1]; 100 µg L-1 microcosm, time 1): 0.737 ± 0.154 ng/mL; Concentration ([1]; 100 µg L-1 microcosm, time 1.5): 0.981 ± 0.052 ng/mL; Concentration ([1]; 100 µg L-1 microcosm, time 2): 1.890 ± 0.622 ng/mL; Concentration ([1]; 100 µg L-1 microcosm, time 3): 2.515 ± 1.049 ng/mL; Concentration ([1]; 100 µg L-1 microcosm, time 5): 3.535 ± 1.300 ng/mL; Concentration ([1]; 100 µg L-1 microcosm, time 8): 3.844 ± 1.117 ng/mL; Concentration ([1]; 100 µg L-1 microcosm, time 12): 5.346 ± 0.464 ng/mL; Concentration ([1]; 100 µg L-1 microcosm, time 24): 5.046 ± 0.415 ng/mL; Average effect (N immobile, 5 daphnids per replicate) (Daphnia magna; concentration 0.5): 0.25; Average effect (N immobile, 5 daphnids per replicate) (Daphnia magna; concentration 1.5): 1; Average effect (N immobile, 5 daphnids per replicate) (Daphnia magna; concentration 5): 4; Average effect (N immobile, 5 daphnids per replicate) (Daphnia magna; concentration 16): 5; Average effect (N immobile, 5 daphnids per replicate) (Daphnia magna; concentration 50): 5; EC50 (Daphnia magna; Daphnia magna, D. magna, this study, read-out: EC50_48h -immobilization): 2.8 µg/mL (≈ 9.48 µM); Concentration ([2]; DBR (dark biotic), day 3): 0.001 ± 0.000 ng/mL; Concentration ([2]; DBR (dark biotic), day 5): 0.001 ± 0.000 ng/mL; Concentration ([2]; LAR (light abiotic), day 3): 0.002 ± 0.001 ng/mL; Concentration ([2]; LAR (light abiotic), day 4): 0.001 ± 0.000 ng/mL; Concentration ([2]; LAR (light abiotic), day 12): 0.002 ± 0.001 ng/mL; Concentration ([2]; LAR (light abiotic), day 16): 0.001 ± 0.000 ng/mL; Concentration ([2]; LBR (light biotic), day 3): 0.001 ± 0.000 ng/mL; Concentration ([2]; LBR (light biotic), day 5): 0.001 ± 0.000 ng/mL; times more toxic than (S)-FL (Tetrahymena thermophila; Tetrahymena thermophila): 10 ×; EC50 (Tetrahymena thermophila; Tetrahymena thermophila, T. thermophila, this study, read-out: EC50_24h -growth): 3.8 µg/mL (≈ 12.9 µM); EC50 (Tetrahymena thermophila; Tetrahymena thermophila, definitive test, read-out: 24hEC50): 4.48 µg/mL (≈ 15.2 µM); EC50 (Tetrahymena thermophila; Tetrahymena thermophila, range test, read-out: 24hEC50): 1.98 µg/mL (≈ 6.71 µM); % I (percentage inhibition) (Tetrahymena thermophila; definitive test, conc. 0.093): 7.356%; % I (percentage inhibition) (Tetrahymena thermophila; definitive test, conc. 0.279): 12.473%; % I (percentage inhibition) (Tetrahymena thermophila; definitive test, conc. 9.302): 28.891%; % I (percentage inhibition) (Tetrahymena thermophila; definitive test, conc. 15.352): 47.228%; % I (percentage inhibition) (Tetrahymena thermophila; definitive test, conc. 24.562): 80.171%; % I (percentage inhibition) (Tetrahymena thermophila; definitive test, conc. 50.660): 101.066%; % I (percentage inhibition) (Tetrahymena thermophila; definitive test, conc. 76.758): 104.371%; % I (percentage inhibition) (Tetrahymena thermophila; range test, conc. 0.005): 34.102%; % I (percentage inhibition) (Tetrahymena thermophila; range test, conc. 0.050): 7.524%; % I (percentage inhibition) (Tetrahymena thermophila; range test, conc. 0.500): 10.316%; % I (percentage inhibition) (Tetrahymena thermophila; range test, conc. 5.000): 39.684%; % I (percentage inhibition) (Tetrahymena thermophila; range test, conc. 50.000): 105.825%

Q: Which “excreted in the urine as this species” value [3] does the source give for `O=C(O)CNC(=O)c1ccccc1` [hippuric acid] here?
A: > 20%

Source: PMC5693942 (Scientific Reports, 2017)
